The test system of test [1] is Zea mays immature embryos. Kind of test: Agrobacterium-mediated transformation of maize immature embryos, additives in the co-cultivation medium. Type of test: cell-based. As to conditions: for Average TE (%) (transformation efficiency): L-cysteine added (+) to co-cultivation medium, split-cob design, drop inoculation. The protocol: Adjust pH media to 5.8 with 1 M NaOH. Weigh 4 g Sigma Purified Agar per bottle (8 g/L) and dispense 500 mL media per bottle, autoclave. When cooled add AgNO3 (stock at 15 mM) to a final concentration of 15 μM and L-cysteine (stock at 150 mg/ml) to a final concentration 300 mg/l. Pour into 100×20 mm Petri plates. Medium containing acetosyringone should be used freshly without long term storage.
Excised immature embryos are directly put on the co-cultivation medium (medium A-3) with the flat side down (scutellum upward). Each plate (20×100 mm plate) can hold up to 100 immature embryos. Put 5 μl of diluted Agrobacterium cell suspension to each immature embryo with a repeat pipettor. Remove excess moisture covering immature embryos by leaving the plate cover open in the hood for about 15 min. Seal the plate with 3M micropore tape and wrap with aluminum foil. Incubate the plate in the dark at 22° C. for 2 to 3 days. Take 3-5 immature embryos for GUS staining if a GUS construct is used to assess transient GUS expression.

The subject of a further test is XI12 mutant maize lines. As to conditions: cited from earlier work.
Another test has as its system Maize XA17 mutants. As to conditions: cited from earlier work.
[2] abbreviates: addition to co-cultivation medium, BPS553×(HiIIA×A188) genotypes.

Marks after values point to notes of the source that are not given here.

With `N[C@@H](CS)C(=O)O` [L-Cysteine], the “Effect on transformation efficiency” value in test [1] (setting [2]) is recorded as “further enhances transformation efficiency”; in test [1] (presence in the co-cultivation medium), “significantly increasing transformation efficiency”. For the same molecule, the “Average TE (%) (transformation efficiency)” value in test [1] (hybrid BPS553x(HillAxA188), 20 experiments) is reported as 32.2* %; in test [1] (inbred BPS553, 27 experiments), 9.6* %.

For the molecule `CC(C)C1(C)N=C(c2nc3ccccc3cc2C(=O)O)NC1=O` (stereo not drawn) [imazaquin], the “Resistance or sensitivity of the plants to the herbicide” value in the test on XI12 mutant maize lines was “sensitive”. Moreover, in the test with Maize XA17 mutants, the “Resistance or tolerance of the plants to the herbicide” value is on record as “highly resistant”.

`CCc1cnc(C2=NC(C)(C(C)C)C(=O)N2)c(C(=O)O)c1` (stereo not drawn) [imazethapyr]: the “Resistance or sensitivity of the plants to the herbicide” value in the test with XI12 mutant maize lines is “highly resistant”. Also, the “Resistance or tolerance of the plants to the herbicide” value with Maize XA17 mutants is recorded as “highly resistant”.

Turning to `O=[N+]([O-])[O-].[Ag+]` [silver nitrate], the “Effect on transformation efficiency” value in test [1] (setting [2]) is “further enhances transformation efficiency”.

The record behind these values is patent US7994399B2, “Methods for the production of stably transformed, fertile Zea mays plants” (BASF Plant Science GmbH, priority 2005, dated 2011).
